Data set [1] in a line: Pharmacokinetic parameters after subcutaneous and intravenous administration to mice. Format: in vivo. As to conditions: male, mouse, plasma, 20 nmol/kg, C57Bl/6J mice; for half-life: read-out: Terminal half life (converted); for MRT: read-out: Mean Residence Time. In short, it runs like this: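 Non-compartmental PK from LC-MS/MS plasma levels, sampled 0.5–24 h after subcutaneous and 10 min–24 h after intravenous dosing. Dose 20 nmol/kg (4 μM in pH 7.4 phosphate-buffered PBS) into male C57Bl/6J mice, 8–11 weeks old.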

Data set [2] in a line: Oral glucose tolerance test (OGTT). As to conditions: blood glucose AUC 0-120 min, 10 nmol/kg s.c. 4 h before oral glucose 2 g/kg. Format: in vivo, C57BL/6J mice. In short, it runs like this:
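Male C57BL/6J mice (n=7) were fasted for 10 h and given peptide at 10 nmol/kg s.c. in phosphate-buffered saline 4 h before an oral glucose bolus of 2 g/kg; controls got vehicle. Tail-blood glucose was read by glucometer up to 120 min, and AUC was computed by the trapezoidal rule without baseline correction.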

In data set [3] the target is T1, human glucagon-like peptide 1 receptor (GLP-1R) (Homo sapiens, UniProt P43220).
T1 construct: expressed in transfected cells
Nature of the data set: GLP-1 receptor efficacy assay (cAMP AlphaScreen, CHO cells). Format: cell-based. Particulars: Table 1A; for EC50: CHO cells expressing human GLP-1-R, cAMP, read-out: EC50 hGLP-1R CHO-K1; for Ratio GLP-1/Glucagon: EC50 [GLP-1R]/EC50 [Glucagon-R]. Put shortly: (§1)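 Stably transfected CHO clones expressing human GLP-1R or glucagon receptor were treated with increasing peptide concentrations for 15 min at room temperature in KRBH containing 0.1 mM IBMX. After lysis, cAMP was quantified by AlphaScreen; EC50 and efficacy relative to GLP-1 or glucagon reference came from curve fitting.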

Data set [4] addresses T2, human glucagon receptor (Glucagon-R) (Homo sapiens, UniProt P47871).
T2 construct: expressed in transfected cells
The data set can be described thus: Glucagon receptor efficacy assay (cAMP AlphaScreen, CHO cells). Format: cell-based. As to conditions: Table 1A; CHO cells expressing human Glucagon-R, cAMP; read-out: EC50 hGCGR CHO-K1. In short, it runs like this: as §1
(In general: In Alpha technology, singlet oxygen from a donor bead excites a nearby acceptor bead.)

Like-named read-outs stand apart in the source and are kept apart here. *1 amine or outer side, *2 acyl side, *3 side chain or, on linkers, in order; H or OH if unused. Where a SMILES comes first, the peptide text is derived from it. Side-chain parts run from the residue outwards. [ ]: non-standard residue; d: D form. The star is where a group is joined. γGlu = O=C(O)[C@H](CCC(=O)[*:2])N[*:1]; Palmitoyl = CCCCCCCCCCCCCCCC(=O)*; Aib = CC(C)(N)C(=O)O

T1 sequence (P43220 24-463): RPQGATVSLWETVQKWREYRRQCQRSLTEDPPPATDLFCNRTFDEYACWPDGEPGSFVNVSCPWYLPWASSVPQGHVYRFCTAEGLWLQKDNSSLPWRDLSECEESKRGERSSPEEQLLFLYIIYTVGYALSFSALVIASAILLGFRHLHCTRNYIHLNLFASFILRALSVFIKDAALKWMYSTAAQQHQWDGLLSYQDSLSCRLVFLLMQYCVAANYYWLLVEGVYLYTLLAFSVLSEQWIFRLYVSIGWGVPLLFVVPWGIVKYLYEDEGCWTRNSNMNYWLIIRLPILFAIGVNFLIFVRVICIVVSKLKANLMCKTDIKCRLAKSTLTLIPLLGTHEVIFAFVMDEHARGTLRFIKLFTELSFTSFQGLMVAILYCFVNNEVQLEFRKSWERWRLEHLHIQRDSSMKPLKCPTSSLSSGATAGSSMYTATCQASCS
T2 sequence (P47871 26-477): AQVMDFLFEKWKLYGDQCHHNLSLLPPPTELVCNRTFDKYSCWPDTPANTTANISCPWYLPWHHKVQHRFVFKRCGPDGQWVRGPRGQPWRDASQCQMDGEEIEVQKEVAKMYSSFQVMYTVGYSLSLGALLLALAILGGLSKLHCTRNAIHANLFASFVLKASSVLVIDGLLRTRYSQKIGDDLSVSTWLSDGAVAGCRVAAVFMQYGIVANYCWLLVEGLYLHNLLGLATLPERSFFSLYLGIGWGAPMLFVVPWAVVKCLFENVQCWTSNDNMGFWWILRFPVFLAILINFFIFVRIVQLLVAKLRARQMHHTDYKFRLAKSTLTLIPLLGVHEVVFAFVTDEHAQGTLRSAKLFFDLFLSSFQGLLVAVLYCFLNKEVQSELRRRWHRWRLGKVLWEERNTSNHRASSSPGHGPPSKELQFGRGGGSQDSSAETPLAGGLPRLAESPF

On to `CCCCCCCCCCCCCCCC(=O)N[C@@H](CCC(=O)NCCCC[C@H](NC(=O)[C@H](CCC(=O)O)NC(=O)[C@H](CC(=O)O)NC(=O)[C@H](CC(C)C)NC(=O)[C@H](Cc1ccc(O)cc1)NC(=O)[C@H](CCCCN)NC(=O)[C@H](CO)NC(=O)[C@H](Cc1ccc(O)cc1)NC(=O)[C@H](CC(=O)O)NC(=O)[C@H](CO)NC(=O)[C@@H](NC(=O)[C@H](Cc1ccccc1)NC(=O)[C@@H](NC(=O)CNC(=O)[C@H](CCC(N)=O)NC(=O)C(C)(C)NC(=O)[C@@H](N)Cc1c[nH]cn1)[C@@H](C)O)[C@@H](C)O)C(=O)N[C@@H](C)C(=O)N[C@@H](C)C(=O)N[C@@H](CCCCN)C(=O)N[C@@H](CC(=O)O)C(=O)N[C@@H](Cc1ccccc1)C(=O)N[C@H](C(=O)N[C@@H](CCC(=O)O)C(=O)N[C@@H](Cc1c[nH]c2ccccc12)C(=O)N[C@@H](CC(C)C)C(=O)N[C@@H](CCC(=O)O)C(=O)N[C@@H](CO)C(=O)N[C@@H](C)C(N)=O)[C@@H](C)CC)C(=O)O` [Compound 15, H-H-Aib-QGTFTSDYSKYLDE-K(Hexadecanoyl-isoGlu)-AAKDFIEWLESA-NH2], for which, in data set [1] (IV), the clearance is 0.128 mL/min/kg and the half-life was 6 h. In addition, in data set [1] (SC), the Tmax was determined as 6 h, the bioavailability stood at 97%, the MRT came to 17.4 h and the half-life was 10.5 h. In addition, in data set [2], the “AUC (% Ctrl)” value worked out at 42 % Ctrl. Further, in data set [3], the EC50 came out at 190 pM and the “Ratio GLP-1/Glucagon” value is 0.31. The EC50 in data set [4] came to 610 pM.
For `CCCCCCCCCCCCCCCC(=O)N[C@@H](CCC(=O)NCCCC[C@H](NC(=O)[C@H](CO)NC(=O)[C@H](CC(=O)O)NC(=O)[C@H](CC(C)C)NC(=O)[C@H](Cc1ccc(O)cc1)NC(=O)[C@H](CCCCN)NC(=O)[C@H](CO)NC(=O)[C@H](Cc1ccc(O)cc1)NC(=O)[C@H](CC(=O)O)NC(=O)[C@H](CO)NC(=O)[C@@H](NC(=O)[C@H](Cc1ccccc1)NC(=O)[C@@H](NC(=O)CNC(=O)[C@H](CCC(N)=O)NC(=O)C(C)(C)NC(=O)[C@@H](N)Cc1c[nH]cn1)[C@@H](C)O)[C@@H](C)O)C(=O)N[C@@H](C)C(=O)N[C@@H](C)C(=O)N[C@@H](CCC(=O)O)C(=O)N[C@@H](CC(=O)O)C(=O)N[C@@H](Cc1ccccc1)C(=O)N[C@H](C(=O)N[C@@H](CCC(=O)O)C(=O)N[C@@H](Cc1c[nH]c2ccccc12)C(=O)N[C@@H](CC(C)C)C(=O)N[C@@H](CCC(=O)O)C(=O)N[C@@H](CO)C(=O)N[C@@H](C)C(N)=O)C(C)C)C(=O)O` [Compound 16, H-H-Aib-QGTFTSDYSKYLDS-K(Hexadecanoyl-isoGlu)-AAEDFVEWLESA-NH2] (H-H[Aib]QGTFTSDYSKYLDSK([γGlu-Palmitoyl])AAEDFVEWLESA-NH2), in data set [1] (IV), the clearance was 0.312 mL/min/kg and the half-life is 4.8 h. In data set [1] (SC), the Tmax came out at 2 h, the bioavailability was determined as 80%, the MRT is 7.5 h and the half-life is 5 h. In data set [2], the “AUC (% Ctrl)” value is listed as 44 % Ctrl. In data set [3], the EC50 stood at 200 pM and the “Ratio GLP-1/Glucagon” value is given as 0.13. In addition, in data set [4], the EC50 was 1580 pM.

A word on the half-life: it is how long it takes for the measured level to halve. One may read the Tmax as the time at which the peak concentration occurs. What is called bioavailability is the share of a dose that reaches the circulation, judged against a reference dose that is usually intravenous. Read a high bioavailability as much systemic uptake. Broadly, the EC50 is the concentration at which the effect is half-maximal.
